In patent publication US12005139B2, “Ophthalmic formulations and related methods” (EternaTear, Inc., priority 2022, dated 2024):

Tested on: cell layers
Assay: USP (87) biological reactivity testing (cytotoxicity)
Type: cell-based
Design: key: “severe” reactivity meaning there was nearly complete destruction of all cell layers
Conditions: dilutions of 50 ppm BAK with EDTA in saline ophthalmic vehicle, down to 5% of use concentration
Description: Testing was conducted by a neutral third party laboratory to determine the cytotoxicity of benzalkonium chloride (BAK) when used as a preservative in a standard topical saline ophthalmic solution vehicle. Test solutions of BAK at various dilutions at the typical preservation concentration used in ophthalmic products (50 ppm) were subject to USP (87) biological reactivity testing and graded according to reactivity. All solutions contained EDTA as an adjunct to enable the BAK to be active against gram negative bacteria. All negative and positive controls were nominal.

Substance: benzalkonium chloride [BAK]
- USP (87) biological reactivity grade: severe
